These results are taken from patent US20040147562A1, “Methods of treating conditions associated with an EDG-1 receptor” (priority 2002, published 2004).

The target in data set [1] is T1, Edg-2 (Homo sapiens, UniProt Q92633).
T1 construct: expressed in transfected cells; host or cells: HTC rat hepatoma cells
As to the kind of experiment: Intracellular calcium (FLIPR) assay, HTC cells expressing Edg-2. In kind it is cell-based. (Calcium assays in cells follow changes in intracellular calcium, usually with a dye or a luminescent sensor.)

In data set [2] the test system is human Edg-1 receptors. Put plainly: Intracellular calcium (FLIPR) assay, HTC cells expressing Edg-1. In kind it is cell-based. The following applies: Edg-1 relative to other Edg receptors. How it is done: (§1) The compounds were tested in HTC cells expressing human Edg-1 receptors. […] The compounds were tested in this recombinant system first, and subsequently tested in cell lines expressing Edg-1 (in addition to other Edg receptors).
(§2) […] receptors such as Edg-1, couple to calcium effector pathways, and result in increases in intracellular calcium following receptor activation (An, 1998, J. Cell Biochem. Supp 30-31:147-157). This biological response lends itself to a very efficient, high-throughput screen using a Fluorescence Imaging Plate Reader (FLIPR; Molecular Devices, Sunnyvale, Calif.). The FLIPR system is a real-time, cell-based assay system with continuous fluorescence detection using a cooled CCD camera. The FLIPR system was used to develop an Edg-1 receptor screen. Rat hepatoma cells stably expressing Edg-1/3i3 chimera or Edg-1 and Gqi were plated on 384-well plates and loaded with a calcium dye loading kit (Molecular Devices, Sunnyvale, Calif.) for 1 hour at room temperature. Cells were then placed on the FLIPR^384 (Molecular Devices, Sunnyvale, Calif.) and excited by an argon laser at 488 nm. The data for the entire 384-well plate was updated every second. An integrated robotic pipettor allowed for simultaneous compound addition into each individual well in the plate.

In data set [3] the test system is mouse T cells. As to the kind of experiment: Mouse T cell migration in Transwell chambers with matrigel. In kind it is cell-based. The following applies: in the presence of S1P; FIG. 14. How it is done:
To further elucidate the role of the Edg-1 receptor in lymphocyte trafficking, migration of mouse T cells was analyzed in both in vitro and in vivo models. Migration of mouse T cells was first tested in Transwell chambers (Costar, Cambridge, Mass.) with polycarbonate fibers having a pore width of 8 μm, separated by a layer of matrigel. Stimulants S1P or exodus-2 were separately added to the bottom chamber. The effects of exodus-2 were tested alone, with S1P, and with S1P and Edg-1 antagonists 101 and 102.

Data set [4] concerns the target T2, human Edg-1 receptors (Homo sapiens, UniProt P21453). Put plainly: Intracellular calcium (FLIPR) assay, HTC cells expressing Edg-1. Further details: Edg 1 IC50 μM; fused on or other part: in the chimera reading: the third intracellular loop (i3) of Edg-3 (S1PR3) in place of Edg-1's own. In kind it is cell-based. How it is done:
as §1, §2

The subject of data set [5] is human umbilical vein endothelial cells. Put plainly: S1P induced calcium response in human umbilical vein endothelial cells. In kind it is cell-based. The following applies: HUVEC; FIG. 4, 5.
The test system of data set [6] is Null/Gqi. As to the kind of experiment: Intracellular calcium (FLIPR) assay, Null/Gqi control cells. Format: cell-based. The following applies: Rattus norvegicus; agonist.
Data set [7] addresses T2, human Edg-1 receptors. Put plainly: Intracellular calcium (FLIPR) assay, HTC cells expressing Edg-1. Format: cell-based. Further details: expressed in transfected cells; host or cells: HTC rat hepatoma cells. The following applies: agonist; Edg 1/Gqi. How it is done:
as §1, §2

In data set [8] the test system is human peripheral blood mononuclear cells. As to the kind of experiment: Migration of human peripheral blood mononuclear cells. In kind it is cell-based. The following applies: chemoattractant; FIG. 9, 13. The method, then:
S1P is a strong chemoattractant to human PBMCs. […] Several migration assays were performed to test this hypothesis and to determine the effect of Edg-1 agonists and antagonists on S1P mediated chemotaxis. The migration assays were performed according to the protocol described in Section 7.12, below. The results of theses assays are presented in FIG. 6, FIG. 7, FIG. 8, FIG. 9 and FIG. 13.
Cells were plated in a 24 well format using Fluoroblok filter insert plates ([…] pore size) or Fluoroblok matrigel coated filter insert plates (Becton Dickinson, San Diego, Calif.). The assay was a modified Boyden Chamber assay in which a cell suspension (1×10^5 cells/ml) was prepared in serum free medium and added to the top chamber. LPA or S1P (doses ranged from 0.1-10 μM in serum free medium) was added to the bottom chamber. Following a 20-24 hour incubation period, the number of cells migrating or invading into the lower chamber was quantitated by transferring the filter insert into a fresh 24-well plate containing 4 μg/ml calcein AM (Molecular Probes, Sunnyvale, Calif.) in Hank's Balanced Salt Solution and staining for one hour.
Detection was via fluorescent readout at 450 nm excitation/530 nm emission using a fluorimeter. The level of fluorescence correlated with cell number.
Human PBMCs are isolated from the buffy coats of healthy donors from the Stanford Blood Center. […]

SMILES strings stand for the structures.

The IC50 is the concentration at which inhibition is half-maximal. What is called melting point is the temperature of the solid-liquid transition. As usually defined, the EC50 is the midpoint of the concentration-response curve.

T1 sequence (Q92633 whole entry): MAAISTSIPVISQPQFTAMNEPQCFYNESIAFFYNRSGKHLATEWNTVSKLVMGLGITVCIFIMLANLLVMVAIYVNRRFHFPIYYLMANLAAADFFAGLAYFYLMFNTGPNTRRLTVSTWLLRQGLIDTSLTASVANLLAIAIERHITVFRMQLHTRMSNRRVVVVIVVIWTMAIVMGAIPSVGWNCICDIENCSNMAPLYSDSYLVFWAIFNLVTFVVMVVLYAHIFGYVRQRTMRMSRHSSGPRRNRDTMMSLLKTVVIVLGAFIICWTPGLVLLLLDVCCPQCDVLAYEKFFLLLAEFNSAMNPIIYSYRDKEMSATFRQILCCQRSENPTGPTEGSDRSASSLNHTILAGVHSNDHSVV
T2 sequence (P21453 whole entry, the tested form may be a part): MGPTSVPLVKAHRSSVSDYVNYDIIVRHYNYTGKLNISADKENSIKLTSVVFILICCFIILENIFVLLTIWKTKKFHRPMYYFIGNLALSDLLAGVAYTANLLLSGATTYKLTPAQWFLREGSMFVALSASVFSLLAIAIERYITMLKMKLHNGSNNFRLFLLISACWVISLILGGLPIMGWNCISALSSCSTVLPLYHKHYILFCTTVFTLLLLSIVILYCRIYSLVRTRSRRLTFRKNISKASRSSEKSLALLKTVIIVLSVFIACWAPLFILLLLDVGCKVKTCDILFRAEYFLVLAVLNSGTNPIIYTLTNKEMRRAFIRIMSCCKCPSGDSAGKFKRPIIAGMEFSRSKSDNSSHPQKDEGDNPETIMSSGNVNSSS

In turn, `O=C(c1cccnc1)N1N=C(c2ccc(Br)cc2)CC1(O)C(F)(F)F` (centres unmarked) [Compound 102] displayed a melting point of 150 to 152 °C. Moreover, the IC50 in data set [1] (Table 2, LPA-stimulated) is more than 20 µM. For the same compound, the “inhibition of LPA-stimulated calcium increases in HTC cells expressing Edg-2” value in data set [1] (concentrations as high as 20 μM) is recorded as “did not inhibit”. In data set [2] (inhibition (Table 2)), the “Fold Selectivity” value is recorded as more than 11.8 Fold. In [3], the “effect on exodus-2-stimulated T cell migration” value was “enhance exodus-2-stimulated migration”. The “inhibition of Edg-1 receptors” value in [4] (FIG. 1-3) was “specifically inhibited”. Moreover, the half-inhibitory concentration (IC50) in data set [4] (Table 2, inhibition of S1P response, read-out: Edg 1 IC50) was found to be 1.69 µM. The “inhibition of S1P induced calcium responses” value in data set [5] is “inhibits S1P induced calcium responses in a dose-dependent manner”.
For `COc1cc(C(=O)c2cc(Cl)ccc2N)cc(OC)c1OC` [Compound 104, (2-Amino-5-chlorophenyl)-(3,4,5-trimethoxyphenyl)methanone], the EC50 is more than 25 µM in data set [1] (agonist), more than 25 µM in data set [6] and 10 µM in [7]. Also, in [1] (agonist, concentrations as high as 25 μM), the “calcium response in HTC cells expressing Edg-2” value is recorded as “did not elicit a calcium response”. Moreover, the “Fold Selectivity” value in data set [2] (agonist (Table 4)) is reported as more than 2.5 Fold. Moreover, the “migration of human peripheral blood mononuclear cells” value in [8] is listed as “stimulates migration of human peripheral blood mononuclear cells at micromolar concentrations”.
